Test results published in patent US9593108B2, “Compounds and methods for antiviral treatment” (PTC Therapeutics, Inc., priority 2009, dated 2017).
pIC50: −log10 of the molar value.

How the values were obtained:
[1] = tested on: HCV replicon RNA (GenBank Accession No. AJ242654); assay: HCV Replicon Assay (replicon RNA reduction and/or Fluc reporter signal); assay type: cell-based, Hepatitis C virus; conditions: Hepatitis C virus, 72 h, replicon-containing cells cultured with test compound for up to 3 days
Procedure, shortened: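 Bicistronic replicon-containing cells cultured with compound for up to 3 days, with interferon as positive control. Inhibition quantified by replicon RNA reduction and/or Fluc reporter signal; IC50 values generally derived from replicon RNA reduction.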

| Compound | pIC50 [1] | melting point |
| --- | --- | --- |
| CC(C)(C)S(=O)(=O)Nc1ccc(-c2c(C#N)c3cc(C(F)(F)F)cnc3n2C2CCCCC2)cc1 [Cpd 424, N-{4-[3-cyano-1-cyclohexyl-5-(trifluoromethyl)-1H-pyrrolo[2,3-b]pyridin-2-yl]phenyl}-2-methylpropane-2-sulfonamide] | > 6.30 | 245 to 247 °C |
| CC(C)S(=O)(=O)Nc1ccc(-c2c(C#N)c3cc(C(F)(F)F)cnc3n2C2CCCCC2)cc1 [Cpd 425, N-{4-[3-cyano-1-cyclohexyl-5-(trifluoromethyl)-1H-pyrrolo[2,3-b]pyridin-2-yl]phenyl}propane-2-sulfonamide] | > 6.30 | 228 to 230 °C |
| CC1(S(=O)(=O)Nc2ccc(-c3c(C#N)c4cc(C(F)(F)F)cnc4n3C3CCCCC3)cc2)CC1 [Cpd 426, N-{4-[3-cyano-1-cyclohexyl-5-(trifluoromethyl)-1H-pyrrolo[2,3-b]pyridin-2-yl]phenyl}-1-methylcyclopropanesulfonamide] | > 6.30 | 255 to 256 °C |
| N#Cc1c(-c2ccc(NS(=O)(=O)C3CC3)cc2)n(C2CCCCC2)c2ncc(C(F)(F)F)cc12 [Cpd 427, N-{4-[3-cyano-1-cyclohexyl-5-(trifluoromethyl)-1H-pyrrolo[2,3-b]pyridin-2-yl]phenyl}cyclopropanesulfonamide] | > 6.30 | 225 to 227 °C |
| N#Cc1c(-c2ccc(NS(=O)(=O)C3CCC3)cc2)n(C2CCCCC2)c2ncc(C(F)(F)F)cc12 [Cpd 428, N-{4-[3-cyano-1-cyclohexyl-5-(trifluoromethyl)-1H-pyrrolo[2,3-b]pyridin-2-yl]phenyl}cyclobutanesulfonamide] | > 6.30 | 234 to 236 °C |
| C[C@H](NS(=O)(=O)c1ccc(-c2c(C#N)c3cc(Cl)cnc3n2-c2nccs2)nc1)C(F)(F)F [Cpd 429, 6-[5-chloro-3-cyano-1-(1,3-thiazol-2-yl)-1H-pyrrolo[2,3-b]pyridin-2-yl]-N-[(2S)-1,1,1-trifluoropropan-2-yl]pyridine-3-sulfonamide] | > 6.30 | 181 to 183 °C |
| Cc1cnc2c(c1)c(C#N)c(-c1ccc(S(=O)(=O)N[C@@H](C)C(F)(F)F)cn1)n2-c1cncs1 [Cpd 430, 6-[3-cyano-5-methyl-1-(1,3-thiazol-5-yl)-1H-pyrrolo[2,3-b]pyridin-2-yl]-N-[(2S)-1,1,1-trifluoropropan-2-yl]pyridine-3-sulfonamide] | > 6.30 | 176 to 178 °C |
| Cc1cnc2c(c1)c(C#N)c(-c1ccc(S(=O)(=O)N[C@@H](C)C(F)(F)F)cn1)n2-c1ccncn1 [Cpd 431, 6-[3-cyano-5-methyl-1-(pyrimidin-4-yl)-1H-pyrrolo[2,3-b]pyridin-2-yl]-N-[(2S)-1,1,1-trifluoropropan-2-yl]pyridine-3-sulfonamide] | > 6.30 | 233 to 235 °C |
| Cc1cnc2c(c1)c(C#N)c(-c1ccc(S(=O)(=O)N[C@@H](C)C(F)(F)F)cn1)n2-c1ccc(F)cn1 [Cpd 432, 6-[3-cyano-1-(5-fluoropyridin-2-yl)-5-methyl-1H-pyrrolo[2,3-b]pyridin-2-yl]-N-[(2S)-1,1,1-trifluoropropan-2-yl]pyridine-3-sulfonamide] | > 6.30 | 199 to 200 °C |
| Cc1cnc2c(c1)c(C#N)c(-c1ccc(S(=O)(=O)N[C@@H](C)C(F)(F)F)cn1)n2-c1cc(C(F)(F)F)ccn1 [Cpd 433, 6-{3-cyano-5-methyl-1-[4-(trifluoromethyl)pyridin-2-yl]-1H-pyrrolo[2,3-b]pyridin-2-yl}-N-[(2S)-1,1,1-trifluoropropan-2-yl]pyridine-3-sulfonamide] | > 6.30 | 192 to 194 °C |
| Cc1cnc2c(c1)c(C#N)c(-c1ccc(S(=O)(=O)N[C@@H](C)C(F)(F)F)cn1)n2-c1cc(N)ccn1 [Cpd 434, 6-[1-(4-aminopyridin-2-yl)-3-cyano-5-methyl-1H-pyrrolo[2,3-b]pyridin-2-yl]-N-[(2S)-1,1,1-trifluoropropan-2-yl]pyridine-3-sulfonamide] | 5.30 to 5.70 | 202 to 203 °C |
| Cc1cnc2c(c1)c(C#N)c(-c1ccc(S(=O)(=O)N[C@@H](C)C(F)(F)F)cn1)n2-c1ncc(Br)cn1 [Cpd 435, 6-[1-(5-bromopyrimidin-2-yl)-3-cyano-5-methyl-1H-pyrrolo[2,3-b]pyridin-2-yl]-N-[(2S)-1,1,1-trifluoropropan-2-yl]pyridine-3-sulfonamide] | 5.70 to 6.30 | 169 to 171 °C |
| Cc1cnc2c(c1)c(C#N)c(-c1ccc(S(=O)(=O)N[C@@H](C)C(F)(F)F)cn1)n2-c1ccnnc1 [Cpd 436, 6-[3-cyano-5-methyl-1-(pyridazin-4-yl)-1H-pyrrolo[2,3-b]pyridin-2-yl]-N-[(2S)-1,1,1-trifluoropropan-2-yl]pyridine-3-sulfonamide] | > 6.30 | 196 to 198 °C |
| C[C@H](NS(=O)(=O)c1ccc(-c2c(C(N)=O)c3cc(C(F)(F)F)cnc3n2C2CCCCC2)cc1)C(F)(F)F [Cpd 437, 1-cyclohexyl-5-(trifluoromethyl)-2-(4-{[(2S)-1,1,1-trifluoropropan-2-yl]sulfamoyl}phenyl)-1H-pyrrolo[2,3-b]pyridine-3-carboxamide] | > 6.30 | 291 to 293 °C |
| CC(C)(NS(=O)(=O)c1ccc(-c2c(C(N)=O)c3cc(C(F)(F)F)cnc3n2C2CCCCC2)nc1)C(F)(F)F [Cpd 438, 1-cyclohexyl-5-(trifluoromethyl)-2-{5-[(1,1,1-trifluoro-2-methylpropan-2-yl)sulfamoyl]pyridin-2-yl}-1H-pyrrolo[2,3-b]pyridine-3-carboxamide] | > 6.30 | 250 to 252 °C |
| CC(C)(NS(=O)(=O)c1ccc(-c2c(C(N)=O)c3cc(C(F)(F)F)cnc3n2C2CCCCC2)cc1)C(F)(F)F [Cpd 439, 1-cyclohexyl-5-(trifluoromethyl)-2-{4-[(1,1,1-trifluoro-2-methylpropan-2-yl)sulfamoyl]phenyl}-1H-pyrrolo[2,3-b]pyridine-3-carboxamide] | > 6.30 | 280 to 283 °C |
| NC(=O)c1c(-c2ccc(S(=O)(=O)NC3(C(F)(F)F)CC3)cn2)n(C2CCCCC2)c2ncc(C(F)(F)F)cc12 [Cpd 440, 1-cyclohexyl-5-(trifluoromethyl)-2-(5-{[1-(trifluoromethyl)cyclopropyl]sulfamoyl}pyridin-2-yl)-1H-pyrrolo[2,3-b]pyridine-3-carboxamide] | > 6.30 | 272 to 275 °C |
| NC(=O)c1c(-c2ccc(S(=O)(=O)NC3(C(F)(F)F)CC3)cc2)n(C2CCCCC2)c2ncc(C(F)(F)F)cc12 [Cpd 441, 1-cyclohexyl-5-(trifluoromethyl)-2-(4-{[1-(trifluoromethyl)cyclopropyl]sulfamoyl}phenyl)-1H-pyrrolo[2,3-b]pyridine-3-carboxamide] | > 6.30 | 303 to 306 °C |
| CC1(NS(=O)(=O)c2ccc(-c3c(C(N)=O)c4cc(C(F)(F)F)cnc4n3C3CCCCC3)cc2)CC1 [Cpd 442, 1-cyclohexyl-2-{4-[(1-methylcyclopropyl)sulfamoyl]phenyl}-5-(trifluoromethyl)-1H-pyrrolo[2,3-b]pyridine-3-carboxamide] | > 6.30 | 284 to 286 °C |
